# From patent US5298521A, “1,5-diphenyl-3-pyrazolylalkyl-N-hydroxydithiocaramates, compositions and use” (Ortho Pharmaceutical Corporation, priority 1993, dated 1994)
# What was measured:
# [1] = biological target: T1, RBL-1 cell cyclooxygenase (Rattus norvegicus, UniProt Q63921); test: RBL-1 cell cyclooxygenase, cell homogenate supernatant (Procedure II); format: biochemical; conditions: RBL-1 homogenate; for inhibition at 3 µM: read-out: PROC. II % INHIBITION CO; for IC50: read-out: PROC. II IC50 CO
# T1 construct: the supernatant was saved as the source of enzymes; endogenous in cells; host or cells: RBL-1 rat basophilic leukemia cells, homogenate supernatant
# T1 sequence (Q63921 27-602): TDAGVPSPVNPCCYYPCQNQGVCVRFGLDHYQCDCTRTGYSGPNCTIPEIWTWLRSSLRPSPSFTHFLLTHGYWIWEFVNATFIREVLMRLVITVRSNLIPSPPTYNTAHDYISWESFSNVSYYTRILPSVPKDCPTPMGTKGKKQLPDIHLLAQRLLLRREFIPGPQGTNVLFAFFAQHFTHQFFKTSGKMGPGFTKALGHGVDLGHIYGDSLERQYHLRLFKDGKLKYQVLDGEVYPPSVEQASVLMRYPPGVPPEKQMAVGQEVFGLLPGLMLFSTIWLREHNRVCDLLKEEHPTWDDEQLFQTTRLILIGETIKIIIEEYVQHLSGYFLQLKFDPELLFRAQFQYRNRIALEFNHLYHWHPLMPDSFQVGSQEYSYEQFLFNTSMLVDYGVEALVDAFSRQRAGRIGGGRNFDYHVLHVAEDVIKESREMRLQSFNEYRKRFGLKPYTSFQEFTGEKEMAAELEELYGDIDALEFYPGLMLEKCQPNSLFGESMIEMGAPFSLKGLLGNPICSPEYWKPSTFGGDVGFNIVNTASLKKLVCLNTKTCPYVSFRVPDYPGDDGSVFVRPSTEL
# Method: (§1) RBL-1 cell 5-lipoxygenase and cyclooxygenase
# (§2) Rat basophilic leukemia cells (RBL-1; 5×10^7 viable cells/mL) were disrupted by homogenization on ice (four 20 sec bursts) with a Brinkman polytron. Complete cell breakage was verified microscopically. The homogenate was then centrifuged at 10,000×g for 48 minutes at 4° C. The pellet was discarded and the supernatant was saved as the source of enzymes. The supernatant was pre-incubated for five minutes at 37° C. in the presence of 2 mM of CaCl2 and compound or vehicle (1% DMSO). The conversion of AA into 5-LO products was initiated by adding 10 μL (50 μCi) of 1-^14 C-AA to each tube and incubated at 37° C. for 20 minutes. The reaction was stopped by adjusting the pH of each sample to 3 to 3.5 with 2M formic acid. Samples were extracted with three volumes of chloroform to isolate the products of 5-LO formed during the reaction. Fractions were dried under nitrogen, then resuspended in 40 μL of chloroform and spotted onto silica gel HL plates. The plates were developed in A-9 solvent. The dried plates were analyzed using a Bioscan Imaging TLC scanner to determine the percentage of radiolabelled AA converted to 5-HETE in each sample.
# [2] = biological target: T2, RBL-1 cell 5-lipoxygenase (Rattus norvegicus, UniProt P12527); test: RBL-1 cell 5-lipoxygenase, cell homogenate supernatant (Procedure II); format: biochemical; conditions: RBL-1 homogenate; for inhibition at 3 µM: read-out: PROC. II % INHIBITION 5-LO; for IC50: read-out: PROC. II IC50 5-LO
# T2 construct: the supernatant was saved as the source of enzymes; endogenous in cells; host or cells: RBL-1 rat basophilic leukemia cells, homogenate supernatant
# T2 sequence (P12527 1-673): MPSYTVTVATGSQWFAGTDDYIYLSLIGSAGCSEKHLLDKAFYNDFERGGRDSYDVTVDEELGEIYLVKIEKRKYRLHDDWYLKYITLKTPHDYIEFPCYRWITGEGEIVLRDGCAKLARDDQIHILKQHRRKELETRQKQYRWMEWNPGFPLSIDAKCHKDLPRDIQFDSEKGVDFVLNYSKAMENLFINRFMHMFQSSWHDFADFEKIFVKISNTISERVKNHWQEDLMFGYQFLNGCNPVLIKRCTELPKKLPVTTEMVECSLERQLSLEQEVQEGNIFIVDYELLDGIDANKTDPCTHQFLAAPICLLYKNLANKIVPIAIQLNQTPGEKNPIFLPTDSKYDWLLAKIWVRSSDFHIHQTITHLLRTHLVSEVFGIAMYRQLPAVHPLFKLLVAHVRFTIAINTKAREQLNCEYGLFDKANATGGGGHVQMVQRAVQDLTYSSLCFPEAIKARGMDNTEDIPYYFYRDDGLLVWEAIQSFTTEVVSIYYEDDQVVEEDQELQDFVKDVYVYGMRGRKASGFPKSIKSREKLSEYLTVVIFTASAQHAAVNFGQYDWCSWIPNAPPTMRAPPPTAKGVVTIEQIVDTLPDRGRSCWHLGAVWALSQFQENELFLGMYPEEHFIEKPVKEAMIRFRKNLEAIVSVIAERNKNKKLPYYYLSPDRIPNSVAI
# Method: as §1, §2
Structure (SMILES),inhibition at 3 µM [1] [%],IC50 [1] [nM],inhibition at 3 µM [2] [%],IC50 [2] [nM]
COc1ccc(-n2nc(CSC(=S)N(O)C(C)C)cc2-c2ccc(Cl)cc2)cc1 [1-B],100,8070,100,570
COc1ccc(-n2nc(CSC(=S)N(C)O)c(Cl)c2-c2ccc(Cl)cc2)cc1 [1-C],75,–,91,–
COc1ccc(-n2nc(CSC(=S)N(O)C(C)C)c(Cl)c2-c2ccc(Cl)cc2)cc1 [1-D],0,1670,70,70
COc1ccc(-n2nc(CSC(=S)N(O)C(C)C)c(Br)c2-c2ccc(Cl)cc2)cc1 [1-E],0,1960,73,40
COc1ccc(-n2nc(CSC(=S)N(O)C(C)C)cc2-c2ccc(C)cc2)cc1 [1-G],30,30,79,20
COc1ccc(-n2nc(CSC(=S)N(C)O)c(Cl)c2-c2ccc(C)cc2)cc1 [1-H],95,–,91,–
